Measured values from US6531598B1, “Naphthostyrils” (Hoffmann-La Roche Inc., priority 2001, dated 2003).
Counter-ions that a name gives are not always drawn.

Assays:
human Cyclin E/CDK2 = target: T1, human Cyclin E/CDK2 (Homo sapiens, UniProt P24941); assay: CDK2 FlashPlate Assay; type: biochemical; conditions: inhibition of Rb phosphorylation, 33P-ATP, 25 minutes at room temperature
T1 construct: made in house; host or cells: insect cells
Procedure: To determine inhibition of CDK2 activity, purified recombinant retinoblastoma (Rb) protein was coated on 96 well FlashPlates (New England Nuclear, Boston, Mass.). […] Recombinant active human Cyclin E/CDK2 complexes were partially purified from extracts of insect cells. […] Plates were incubated for 25 minutes at room temperature with shaking, then washed and counted in the Topcount scintillation counter (Packard Instrument Co., Downers Grove, Ill.). Dilutions of test compounds were tested in duplicate in each assay. The percent inhibition of Rb phosphorylation, which is a measure of the inhibition of CDK2 activity, was determined according to the following formula: [formula]
where “test compound” refers to the average counts per minute of the test duplicates, “nonspecific” refers to the average counts per minute when no Cyclin E/CDK2 was added, and “total” refers to the average counts per minute when no compound was added.

[1] = tested on: RKO colon carcinoma cell line; assay: Tetrazolium dye proliferation assay, RKO; type: cell-based; conditions: Colon carcinoma cell, 120 h; MTT, 5 days post addition of test compound, 500 cell per well
Procedure: (§1) The cell lines used were MDA-MB435, a breast carcinoma dell line and RKO, a colon carcinoma cell line.
(§2) Teh estrogen receptor negative epithelial breast carcinoma line (MDA-MB435) was purchased from American Type Cell Culture Collection (ATCC; Rockville, Md.) and was grown in the medium recommended by ATCC. For analysis of the test compounds on growth of these cells, the cells were plated at 2000 cells per well in a 96-well tissue culture plate, and were incubated overnight at 37° C. with 5% CO2. The next day, the test compounds were dissolved in 100% dimethyl sulfoxide (DMSO) to yield a 10 mM stock solution. […] The compounds were then serially diluted in medium with 1.2% DMSO. One-fourth final volume of the diluted compounds was transferred to 96 well plates. Test compounds were assayed in duplicate. DMSO was added to a row of “control cells” such that the final concentration of DMSO in each well was 0.3%. Wells to which no cells were added served as the “blank.” Wells to which no inhibitor was added served as “no inhibitor control”. The plates were returned to the incubator, and 5 days post addition of test compound, were analyzed as described below.
(§3) 3-(4,5-Dimethylthiazole-2-yl)-2,5-diphenyl-2H-tetrazolium bromide (thiazolyl blue; MTT) was added to each well to yield a final concentration of 1 mglmL. The plates were then incubated at 37° C. for 3 hours. The plates were centrifuged at 1000 rpm for 5 minutes prior to aspiration of the MTT-containing medium. The MTT-containing medium was then removed and 100 μL 100% EtOH was added to each well to dissolve the resulting formazan metabolite. To ensure complete dissolution, plates were shaken for 15 minutes at room temperature. Absorbencies were read in a microliter plate reader (Molecular Dynamics) at a wavelength of 570 nm with a 650 nm reference. Percent inhibition was calculated by subtracting the absorbency of the blank (no cell) wells from all wells, then subtracting the division of the average absorbency of each test duplicate by the average of the controls from 1.00. Inhibitory concentrations (IC50) were determined from the linear regression of a plot of the logarithm of the concentration versus the percent inhibition.
The colon carcinoma line RKO was also obtained from the ATCC and was tested according to the same protocol provided above except that the cell line RKO was plated at 500 cell per well.

[2] = tested on: MDA-MB435 breast carcinoma cell line; assay: Tetrazolium dye proliferation assay, MDA-MB435; type: cell-based; conditions: Homo sapiens, MDA-MB-435, 120 h; MTT, 5 days post addition of test compound, 2000 cells per well
Procedure: as §1, §2, §3

Measured: IC50

NCCSc1cc(-c2ccc[nH]2)c2c3c(ccc(F)c13)NC2=O [Example 40, 5-(2-Amino-ethylsulfanyl)-6-fluoro-3-(1H-pyrrol-2-yl)-1H-benzo[cd]indol-2-one]
≤ 10 µM: all assays above

O=C1Nc2ccc(F)c3c(OCCO)cc(-c4ccc[nH]4)c1c23 [Example 16, 6-Fluoro-5-(2-hydroxyethoxy)-3-(1H-pyrrol-2-yl)-1H-benzo[cd]indol-2-one]
≤ 10 µM: all assays above

O=C1Nc2ccc(F)c3c2C1=C(c1ccc[nH]1)CC3 [Example 6, 6-fluoro-3-(1H-pyrrol-2-yl)-4,5-dihydro-1H-benzo[cd]indol-2-one]
≤ 10 µM: all assays above

COc1cc(-c2ccc[nH]2)c2c3c(ccc(F)c13)NC2=O [Example 13, 6-Fluoro-5-methoxy-3-(1H-pyrrol-2-yl)-1H-benzo[cd]indol-2-one]
≤ 10 µM: all assays above

O=C1Nc2ccc(F)c3ccc(-c4ccc[nH]4)c1c23 [Example 7, 6-Fluoro-3-(1H-pyrrol-2-yl)-1H-benzo[cd]indol-2-one]
≤ 10 µM: all assays above

NCCS(=O)(=O)c1cc(-c2ccc[nH]2)c2c3c(ccc(F)c13)NC2=O [Example 44, 5-(2-Amino-ethanesulfonyl)-6-fluoro-3-(1H-pyrrol-2-yl)-1H-benzo[cd]indol-2-one]
≤ 10 µM: all assays above

O=C1Nc2ccc(F)c3c(S(=O)(=O)CCO)cc(-c4ccc[nH]4)c1c23 [Example 38, 6-Fluoro-5-(2-hydroxy-ethanesulfonyl)-3-(1H-pyrrol-2-yl)-1H-benzo[cd]indol-2-one]
≤ 10 µM: all assays above

O=C1Nc2ccc(F)c3c(NCCO)cc(-c4ccc[nH]4)c1c23 [Example 15, 6-Fluoro-5-(2-hydroxy-ethylamino)-3-(1H-pyrrol-2-yl)-1H-benzo[cd]indol-2-one]
≤ 10 µM: all assays above

O=C1Nc2ccc(F)c3c(N4CC[C@@H](O)C4)cc(-c4ccc[nH]4)c1c23 [Example 32]
≤ 10 µM: all assays above

O=C1Nc2ccc(F)c3c(N4CCNCC4)cc(-c4ccc[nH]4)c1c23 [Example 24, 6-Fluoro-5-piperazin-1-yl-3-(1H-pyrrol-2-yl)-1H-benzo[cd]indol-2-one acetic acid salt]
≤ 10 µM: all assays above

O=C1Nc2ccc(F)c3c(SCCO)cc(-c4ccc[nH]4)c1c23 [Example 36, 6-Fluoro-5-(2-hydroxyethylsulfanyl)-3-(1H-pyrrol-2-yl)-1H-benzo[cd]indol-2-one]
≤ 10 µM: all assays above

O=C1Nc2ccc(F)c3c(N4CCC(O)CC4)cc(-c4ccc[nH]4)c1c23 [Example 33, 6-Fluoro-5-(4-hydroxy-piperidin-1-yl)-3-(1H-pyrrol-2-yl)-1H-benzo[cd]indol-2-one]
≤ 10 µM: all assays above

CC(C)(N)CNc1cc(-c2ccc[nH]2)c2c3c(ccc(F)c13)NC2=O [Example 22, 5-(2-Amino-2-methyl-propylamino)-6-fluoro-3-(1H-pyrrol-2-yl)-1H-benzo[cd]indol-2-one]
≤ 10 µM: all assays above

Cc1c[nH]c(-c2cc(SCCN)c3c(F)ccc4c3c2C(=O)N4)c1C [Example 50, 5-(2-Amino-ethylsulfanyl)-6-fluoro-3-(3,4-dimethyl-1H-pyrrol-2-yl)-1H-benzo[cd]indol-2-one trifluoroacetic acid salt]
≤ 10 µM: all assays above

O=C1Nc2ccc(F)c3c(N4CCOCC4)cc(-c4ccc[nH]4)c1c23 [Example 23, 6-Fluoro-5-morpholin-4-yl-3-(1H-pyrrol-2-yl)-1H-benzo[cd]indol-2-one]
≤ 10 µM: all assays above

NCCCNc1cc(-c2ccc[nH]2)c2c3c(ccc(F)c13)NC2=O [Example 21, 5-(3-Amino-propylamino)-6-fluoro-3-(1H-pyrrol-2-yl)-1H-benzo[cd]indol-2-one acetic acid salt]
≤ 10 µM: all assays above
